What all share (assay type): cell-based, human
One test deals with A549 cells. Briefly: Clonogenic assay in A549 cells. The conditions noted are these: Homo sapiens, 168 h, seven days treatment, read-out: IC50 to inhibit growth (survival fraction). The method, then: (§1) Further, clonogenic assay is considered as the gold standard method for evaluating the anticancer activity of any compound and is also a good indicator of the in vivo efficacy of any anticancer compound. Therefore, the therapeutic index of DSePA and D-DSePA in A549/WI-38 cells was also validated by employing the clonogenic assay. For this, A549/WI-38 cells were treated with the varying concentrations (0.1-2 μM)/(1-500 μM) of DSePA/D-DSePA for seven days and the survival fraction was calculated by counting the number of surviving clones (FIG. 11A). The plot of survival fraction verses the concentration of DScPA/D-DSCPA was used to estimate the IC50 of above compounds to inhibit the growth of A549/WI-38 cells. […] This clearly confirmed that deuteration of DScPA reduced its toxicity in normal cells without compromising its efficacy in cancer cells. […]
(§2) Clonogenic assay—Clonogenic assay was performed according to the method reported previously. […] After 7 days, colonies were fixed with absolute methanol for 5 min, stained with 0.5% crystal violet for 5 min, washed with distilled water to remove excess stain and counted manually under a stereo microscope. […] The plating efficiency and the survival fraction under irradiated and drug treated conditions were calculated using following formulae: […]
(§3) The plating efficiency of A549 and WI38 cells was calculated by seeding ˜300 and ˜500 cells respectively. […]

The subject of a further test is WI-26 VA4 cells. As to the kind of experiment: MTT assay, toxicity in non-cancerous lung fibroblast WI-26 VA4 cells. The conditions noted are these: Homo sapiens, WI26VA4, 48 h post treatment, read-out: IC50 for inhibiting the cell proliferation. From the text: Therefore, D-DSePA was compared with un-deuterated DSePA for its anticancer activity in A549, H1975 and H3122 cell lines which are representative of NSCLC. […] The plot of percent (%) cytotoxicity (100-% viability) versus the concentration of DSePA/D-DSePA was used to estimate the half maximum concentration (IC50) of above compounds to inhibit the proliferation of cells. […] Similarly, the toxicity of DSePA/D-DSePA was studied in non-cancerous lung fibroblast cells, WI-38 and WI-26 VA4 in the concentration range of 0.1 to 1000 μM at 48 h post treatment by MTT assay (FIG. 9D and 9E). […] Employing these values, the therapeutic index (IC50 in normal lung cell/IC50 in lung cancer cell) of DSePA and D-DSePA in different pairs of normal versus cancerous cells (viz., A549/WI-38, A549/WI-26 VA4, H1975/WI-38, H1975/WI-26 VA4, H3122/WI-38 and H3122/WI-26 VA4) was calculated (Table-3). […]
MTT Assay—To evaluate the anti-proliferative effect of D-DScPA and DScPA, Cells (˜5×10^3) suspended in 100 μl of complete culture medium were seeded in each well of 96 well plates. […] The percentage (%) cytotoxicity was calculated from the decrease in absorbance at 570 nm of treated groups as compared to that of control group. […] The therapeutic index was calculated by normalizing the IC50 concentration of D-DSePA/DSePA in non-cancerous cells to that in cancerous cells.

Another test concerns WI-38 cells. As to the kind of experiment: Clonogenic assay in WI-38 cells. The conditions noted are these: Homo sapiens, 168 h, seven days treatment, read-out: IC50 to inhibit growth (survival fraction). As for the experimental part:
as §1, §2, §3

The values that follow come from patent publication US20240208901A1, “Deuterated 3,3'-Diselenodipropionic Acid (DSePA) and Its Use as an Anticancer or Radioprotective Agent” (Secretary, Department of Atomic Energy, priority 2022, published 2024).

In the case of `O=C(O)CC[Se][Se]CCC(=O)O` [DSePA, 3,3′-diselenodipropionic acid], the IC50 turned out to be 1200 ± 10 nM with A549 cells, 151 ± 3.3 µM with WI-26 VA4 cells and 17.9 ± 0.01 µM in the test on WI-38 cells.
